In PubChem BioAssay AID1919002 (Molecular Pharmacology Branch, DTP, NCI, 2023):
Where “and” joins values, the source holds several entries; their conditions need not be identical. Equal entries are not always repeated.

Test system: 743489-274-T-PDC complex spheroid growth
Assay: Anticancer human tumor 743489-274-T-PDC patient-derived renal cell carcinoma cell line growth inhibition [AhR]
Settings: for viability, T/C: stronger effect = lower value
Source text: Multicellular complex tumor spheroid response to aryl hydrocarbon receptor antagonists in combination with a variety of drugs and investigational agents in selected tumor cell lines
The current study was undertaken to assess response to aryl hydrocarbon receptor antagonists in combination with standard-of-care drugs and investigational agents in solid tumor complex spheroid models. Complex spheroids include a stromal component modeled by human endothelial cells (HUVEC) and fibroblasts modeled by human mesenchymal stem cells (MSCs). The concentration ranges selected for each drug and investigational agent were based upon clinically achievable concentrations if the clinical Cmax of the agent was known.
Compounds. The drugs and investigational agents: BAY 2416964 (NSC825713), GNF351 (NSC835774), CH-223191 (NSC835775), CPI-455 (NSC825282), aza-TdCyd (NSC777586), decitabine (NSC127716), belinostat (NSC758774), entinostat (NSC756642), pevonedistat (NSC761192), tazemetostat (NSC777109), talazoparib (NSC765396), olaparib (NSC753686), selinexor (NSC780203), nedisertib (M3814, NSC802822), bortezomib (NSC756655), venetoclax (NSC766270), doxorubicin (NSC123127), elimusertib (BAY189344, NSC800525), ceralasertib (AZD6738, NSC777638), TAK-243 (NSC785004), alisertib (NSC759677), etoposide (NSC141540), topotecan (NSC609699), eribulin (NSC707389), gemcitabine (NSC613327), carboplatin (NSC241240), cisplatin (NSC119875), and SN-38 (NSC673596) were obtained from the National Cancer Institute (NCI) Developmental Therapeutics Program Chemical Repository (32). The FDA-approved anticancer drug set is available from the Developmental Therapeutics Program at https://dtp.cancer.gov/organization/dscb/obtaining/available plates.htm. […] The stock solutions were prepared in dimethyl sulfoxide (DMSO, Sigma-Aldrich, St. Louis, MO, cat. D2650), except for the platinum compounds which were prepared in saline (Quality Biological, Gaithersburg, MD, cat. 114-055-101), at 800-fold the tested concentration and stored at -70 degrees C prior to their use. All drugs and investigational agents were tested over a range starting from a high concentration at or near the clinical Cmax and decreasing in half-log increments. If the clinical Cmax for an agent had not been determined, the highest concentration tested was 10 microM (Table 1).
Cell Culture. All cells were maintained in an incubator at 37 degrees C and 5% CO2 with 95% humidity. The PDC lines were cultured according to standard operating procedures established by the NCI PDMR (https://pdmr.cancer.gov). Briefly, all PDCs were thawed and cultured in Matrigel-coated flasks prepared with a working solution of 1X Ham's F-12 nutrient mix, without supplementation (Invitrogen, Waltham, MA, cat. 11765054), 100 U/mL penicillin-streptomycin (Invitrogen, cat. 15140122), and 2.5% Matrigel (Corning Inc., Corning, NY, cat. 354248) for the first three passages. All PDCs were cultured in complete DMEM/F-12 media containing advanced DMEM/F-12 (Invitrogen, cat. 12634028), 4.9% defined fetal bovine serum, heat inactivated (HyClone Laboratories Inc., Logan, UT, cat. SH30070.03HI), 389 ng/mL hydrocortisone (Sigma-Aldrich, cat. H4001), 9.7 ng/mL human EGF recombinant protein (Invitrogen, cat. PHG0313), 23.4 microg/mL adenine (Sigma-Aldrich, cat. A2786), 97.3 U/mL penicillin-streptomycin (Invitrogen, cat. 15140122), 1.9 mM L-glutamine (Invitrogen, cat. 25030081), and 9.7 microM Y-27632 dihydrochloride (Tocris Bioscience, Bristol, United Kingdom, cat. 1254). The PDCs were cultured in complete DMEM/F12 media without 10 microM Y-27632 dihydrochloride for at least two passages prior to the screen. The established cell lines NCI-H1341 and […] were cultured in DMEM/F-12, HEPES (Invitrogen, cat. 11330032), 5% defined fetal bovine serum (HyClone Laboratories Inc., cat. SH30070.03), ITS premix universal culture supplement [insulin (5 microg/mL), transferrin (5 microg/mL), and selenious acid (5 ng/mL)] […]

[1] = curve of first compound, second compound 0.1 µM
[2] = curve of first compound, second compound 0.316 µM
[3] = curve of first compound, second compound 1 µM
[4] = curve of first compound, second compound 3.16 µM
[5] = curve of first compound, second compound 10 µM
[6] = second compound 0.1 µM, first compound 0.00316 µM
[7] = second compound 0.1 µM, first compound 0.01 µM
[8] = second compound 0.1 µM, first compound 0.0316 µM
[9] = second compound 0.1 µM, first compound 0.1 µM
[10] = second compound 0.1 µM, first compound 0.316 µM
[11] = second compound 0.1 µM, first compound 1 µM
[12] = second compound 0.316 µM, first compound 0.00316 µM
[13] = second compound 0.316 µM, first compound 0.01 µM
[14] = second compound 0.316 µM, first compound 0.0316 µM
[15] = second compound 0.316 µM, first compound 0.1 µM
[16] = second compound 0.316 µM, first compound 0.316 µM
[17] = second compound 0.316 µM, first compound 1 µM
[18] = second compound 1 µM, first compound 0.00316 µM
[19] = second compound 1 µM, first compound 0.01 µM
[20] = second compound 1 µM, first compound 0.0316 µM
[21] = second compound 1 µM, first compound 0.1 µM
[22] = second compound 1 µM, first compound 0.316 µM
[23] = second compound 1 µM, first compound 1 µM
[24] = second compound 3.16 µM, first compound 0.00316 µM
[25] = second compound 3.16 µM, first compound 0.01 µM
[26] = second compound 3.16 µM, first compound 0.0316 µM
[27] = second compound 3.16 µM, first compound 0.1 µM
[28] = second compound 3.16 µM, first compound 0.316 µM
[29] = second compound 3.16 µM, first compound 1 µM
[30] = second compound 10 µM, first compound 0.00316 µM
[31] = second compound 10 µM, first compound 0.01 µM
[32] = second compound 10 µM, first compound 0.0316 µM
[33] = second compound 10 µM, first compound 0.1 µM
[34] = second compound 10 µM, first compound 0.316 µM
[35] = second compound 10 µM, first compound 1 µM
[36] = second compound 0.1 µM, first compound 3.16 µM
[37] = second compound 0.1 µM, first compound 10 µM
[38] = second compound 0.316 µM, first compound 3.16 µM
[39] = second compound 0.316 µM, first compound 10 µM
[40] = second compound 1 µM, first compound 3.16 µM
[41] = second compound 1 µM, first compound 10 µM
[42] = second compound 3.16 µM, first compound 3.16 µM
[43] = second compound 3.16 µM, first compound 10 µM
[44] = second compound 10 µM, first compound 3.16 µM
[45] = second compound 10 µM, first compound 10 µM
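Note: spheroids exposed to agents for 7 days before readout.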
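Throughout, for viability, T/C: 100% = DMSO vehicle control wells.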

Row | Structure (SMILES) | IC50 [1] [µM] | IC50 [2] [µM] | IC50 [3] [µM] | IC50 [4] [µM] | IC50 [5] [µM] | viability, T/C [8] [%] | viability, T/C [9] [%] | viability, T/C [10] [%] | viability, T/C [11] [%] | viability, T/C [14] [%] | viability, T/C [15] [%] | viability, T/C [16] [%] | viability, T/C [17] [%] | viability, T/C [20] [%] | viability, T/C [21] [%] | viability, T/C [22] [%] | viability, T/C [23] [%] | viability, T/C [26] [%] | viability, T/C [27] [%] | viability, T/C [28] [%] | further results
1 | Nc1ncn(C2CC(O)C(CO)O2)c(=O)n1 (configuration not stated) + Cc1ccccc1N=Nc1ccc(NC(=O)c2ccnn2C)c(C)c1 | > 1 | > 1 | > 1 | > 1 | > 1 | 88.6 | 92.5 | 103 | 87.1 | 89.8 | 87.2 | 87.8 | 84.7 | 101 | 79.8 | 101 | 87.9 | 83.9 | 74.8 | 88.9 | viability, T/C [6]: 86.2%; viability, T/C [7]: 91.2%; viability, T/C [12]: 107%; viability, T/C [13]: 89.2%; viability, T/C [18]: 89.7%; viability, T/C [19]: 99.1%; viability, T/C [24]: 94.8%; viability, T/C [25]: 81.7%; viability, T/C [29]: 82.8%; viability, T/C [30]: 92.7%; viability, T/C [31]: 88%; viability, T/C [32]: 90%; viability, T/C [33]: 96.2%; viability, T/C [34]: 80.1%; viability, T/C [35]: 82.8%
2 | O=C(c1cc(Cc2n[nH]c(=O)c3ccccc23)ccc1F)N1CCN(C(=O)C2CC2)CC1 | – | – | – | – | – | – | – | – | – | – | – | – | – | – | – | – | – | – | – | – | viability, T/C (compound 0.0316 µM): 95.7% and 110% and 102%; viability, T/C (compound 0.1 µM): 101% and 105% and 113%; viability, T/C (compound 0.316 µM): 103% (2×) and 97.1%; viability, T/C (compound 1 µM): 92.9% and 102% and 112%; viability, T/C (compound 3.16 µM): 102% and 101% and 109%; viability, T/C (compound 10 µM): 96.3% and 110% and 106%; IC50 (curve of compound): > 10 µM
3 | CC1COCCN1c1cc(-c2ccnn2C)c2ccnc(-c3ccn[nH]3)c2n1 (configuration not stated) + Cc1ccccc1N=Nc1ccc(NC(=O)c2ccnn2C)c(C)c1 | > 1 | > 1 | > 1 | > 1 | > 1 | 93.9 | 95.9 | 88.5 | 78.4 | 89.6 | 93.3 | 99.2 | 75.3 | 92 | 86.5 | 88.2 | 68.1 | 88 | 82.8 | 76.4 | viability, T/C [6]: 92.8%; viability, T/C [7]: 94.4%; viability, T/C [12]: 89.7%; viability, T/C [13]: 101%; viability, T/C [18]: 93.4%; viability, T/C [19]: 98.5%; viability, T/C [24]: 87.6%; viability, T/C [25]: 86.8%; viability, T/C [29]: 76.3%; viability, T/C [30]: 103%; viability, T/C [31]: 94.9%; viability, T/C [32]: 96.2%; viability, T/C [33]: 84.9%; viability, T/C [34]: 73.5%; viability, T/C [35]: 58.6%

Now from value to compound, other results behind:

Row | IC50 [1] [µM] | IC50 [2] [µM] | IC50 [3] [µM] | IC50 [4] [µM] | IC50 [5] [µM] | Structure (SMILES) | viability, T/C [8] [%] | viability, T/C [9] [%] | viability, T/C [10] [%] | viability, T/C [11] [%] | viability, T/C [14] [%] | viability, T/C [15] [%] | viability, T/C [16] [%] | viability, T/C [17] [%] | viability, T/C [20] [%] | viability, T/C [21] [%] | viability, T/C [22] [%] | viability, T/C [23] [%] | viability, T/C [26] [%] | viability, T/C [27] [%] | viability, T/C [28] [%] | further results
4 | > 10 | > 10 | > 10 | > 10 | > 10 | Nc1ccn(C2OC(CO)C(O)C2(F)F)c(=O)n1 (configuration not stated) + Cc1cncc(-c2nc(NCCc3c[nH]c4ccccc34)c3ncn(C(C)C)c3n2)c1 | 83.1 | 76.7 | 72.1 | 65.2 | 87.1 | 73.2 | 71.9 | 62.3 | 85.6 | 90.8 | 74.7 | 64.8 | 104 | 93.8 | 77.3 | viability, T/C [36]: 65.7%; viability, T/C [37]: 67.9%; viability, T/C [38]: 72.3%; viability, T/C [39]: 63.4%; viability, T/C [40]: 79.2%; viability, T/C [41]: 68.9%; viability, T/C [29]: 62.3%; viability, T/C [42]: 74.3%; viability, T/C [43]: 67.1%; viability, T/C [32]: 138%; viability, T/C [33]: 100%; viability, T/C [34]: 74.2%; viability, T/C [35]: 84.2%; viability, T/C [44]: 78.5%; viability, T/C [45]: 96.8%
5 | > 10 | > 10 | > 10 | > 10 | > 10 | CC1COCCN1c1cc(C2(S(C)(=N)=O)CC2)nc(-c2ccnc3[nH]ccc23)n1 (configuration not stated) + Cc1cncc(-c2nc(NCCc3c[nH]c4ccccc34)c3ncn(C(C)C)c3n2)c1 | 104 | 93.8 | 89.3 | 86 | 87.9 | 89.8 | 85.1 | 86.4 | 88.7 | 91.7 | 97.3 | 98.1 | 109 | 108 | 105 | viability, T/C [36]: 85.9%; viability, T/C [37]: 85.4%; viability, T/C [38]: 90%; viability, T/C [39]: 84.3%; viability, T/C [40]: 84.1%; viability, T/C [41]: 83.7%; viability, T/C [29]: 90.9%; viability, T/C [42]: 91.4%; viability, T/C [43]: 85.7%; viability, T/C [32]: 97.3%; viability, T/C [33]: 117%; viability, T/C [34]: 92.5%; viability, T/C [35]: 107%; viability, T/C [44]: 105%; viability, T/C [45]: 99.1%
